Experimental data taken from US8541460B2, “PDK-1/Akt signaling inhibitors” (The Ohio State University, priority 2003, dated 2013).

Key:
Assay in all cases: NCI DTP cell line screen (SRB), Non-Small Cell Lung Cancer
[1] = tested on: NCI-H23; format: cell-based
Protocol: (§1) Screening of compounds 70 and 71 against several cancer cell lines The human tumor cell lines of the cancer screening panel are grown in RPMI 1640 medium containing 5% fetal bovine serum and 2 mM L-glutamine. For a typical screening experiment, cells are inoculated into 96 well microtiter plates in 100 μL at plating densities ranging from 5,000 to 40,000 cells/well depending on the doubling time of individual cell lines. After cell inoculation, the microtiter plates are incubated at 37° C., 5% CO2, 95% air and 100% relative humidity for 24 h prior to addition of experimental drugs.
(§2) After 24 h, two plates of each cell line are fixed in situ with TCA, to represent a measurement of the cell population for each cell line at the time of drug addition (Tz). Experimental drugs are solubilized in dimethyl sulfoxide at 400-fold the desired final maximum test concentration and stored frozen prior to use. At the time of drug addition, an aliquot of frozen concentrate is thawed and diluted to twice the desired final maximum test concentration with complete medium containing 50 μg/ml gentamicin. Additional four, 10-fold or ½ log serial dilutions are made to provide a total of five drug concentrations plus control. Aliquots of 100 μl of these different drug dilutions are added to the appropriate microtiter wells already containing 100 μl of medium, resulting in the required final drug concentrations.
(§3) Following drug addition, the plates are incubated for an additional 48 h at 37° C., 5% CO2, 95% air, and 100% relative humidity. For adherent cells, the assay is terminated by the addition of cold TCA. Cells are fixed in situ by the gentle addition of 50 μl of cold 50% (w/v) TCA (final concentration, 10% TCA) and incubated for 60 minutes at 4° C. The supernatant is discarded, and the plates are washed five times with tap water and air dried. Sulforhodamine B (SRB) solution (100 μl) at 0.4% (w/v) in 1% acetic acid is added to each well, and plates are incubated for 10 minutes at room temperature. After staining, unbound dye is removed by washing five times with 1% acetic acid and the plates are air dried. Bound stain is subsequently solubilized with 10 mM trizma base, and the absorbance is read on an automated plate reader at a wavelength of 515 nm. For suspension cells, the methodology is the same except that the assay is terminated by fixing settled cells at the bottom of the wells by gently adding 50 μl of 80% TCA (final concentration, 16% TCA). Using the seven absorbance measurements [time zero, (Tz), control growth, (C), and test growth in the presence of drug at the five concentration levels (Ti)], the percentage growth is calculated at each of the drug concentrations levels. Percentage growth inhibition is calculated as: [(Ti−Tz)/(C−Tz)]×100 for concentrations for which Ti>/=Tz [(Ti−Tz)/Tz]×100 for concentrations for which Ti<Tz
(§4) Three dose response parameters are calculated for each experimental agent. […] The drug concentration resulting in total growth inhibition (TGI) is calculated from Ti=Tz. […] Values are calculated for each of these three parameters if the level of activity is reached; however, if the effect is not reached or is exceeded, the value for that parameter is expressed as greater or less than the maximum or minimum concentration tested.
(§5) The methods described were used to test compounds 70 and 71 on a panel of sixty cell lines under a screening service provided by the Developmental Therapeutics Program at the National Institutes of Health. Shown in FIG. 1C are 1, RPMI-8226 leukemia cells; 2; NCI-H322M non-small cell lung cancer cells; 3, HT29 colon cancer cells; 4, U251 CNS cancer cells; 5, SK-MEL-28 melanoma cancer cells; 6, SK-OV-3 ovarian cancer cells; 7, RXF 393 renal cancer cells; 8, PC-3 prostate cancer cells; 9, MDA-MB-231 breast cancer cells.

[2] = tested on: NCI-H322M; format: cell-based
Protocol: as §1, §2, §3, §4, §5

[3] = tested on: NCI-H460; format: cell-based
Protocol: as §1, §2, §3, §4, §5

[4] = tested on: NCI-H522; format: cell-based, human
Protocol: as §1, §2, §3, §4, §5

[5] = read-out: LC50 (the source's name)

N=C(N)Nc1ccc(-n2nc(C(F)(F)F)cc2-c2ccc3c(ccc4ccccc43)c2)cc1 [Compound 71, 4-[5-(2-Phenanthrenyl)-3-(trifluoromethyl)-1H-pyrazol-1-yl]-phenyl-guanidine]
GI50 [1]: 1790 nM | TGI [1]: 3.18E−06 | Mean Optical Densities ([1]; Log10 Concentration −4.0): 0.151 | Percent Growth ([1]; Log10 Concentration −4.0): −67% | Mean Optical Densities ([1]; Log10 Concentration −5.0): −0.041 | Percent Growth ([1]; Log10 Concentration −5.0): −100% | Mean Optical Densities ([1]; Log10 Concentration −6.0): 1.679 | Percent Growth ([1]; Log10 Concentration −6.0): 101% | Mean Optical Densities ([1]; Log10 Concentration −7.0): 1.515 | Percent Growth ([1]; Log10 Concentration −7.0): 87% | Mean Optical Densities ([1]; Log10 Concentration −8.0): 1.585 | Percent Growth ([1]; Log10 Concentration −8.0): 93% | CC50 [1, 5]: 5640 nM | GI50 [2]: 1360 nM | TGI [2]: 2.64E−06 | Mean Optical Densities ([2]; Log10 Concentration −4.0): 0.257 | Percent Growth ([2]; Log10 Concentration −4.0): −59% | Mean Optical Densities ([2]; Log10 Concentration −5.0): −0.052 | Percent Growth ([2]; Log10 Concentration −5.0): −100% | Mean Optical Densities ([2]; Log10 Concentration −6.0): 1.031 | Percent Growth ([2]; Log10 Concentration −6.0): 73% | Mean Optical Densities ([2]; Log10 Concentration −7.0): 1.049 | Percent Growth ([2]; Log10 Concentration −7.0): 76% | Mean Optical Densities ([2]; Log10 Concentration −8.0): 0.988 | Percent Growth ([2]; Log10 Concentration −8.0): 65% | CC50 [2, 5]: 5140 nM | GI50 [3]: 1640 nM | TGI [3]: 3.04E−06 | Mean Optical Densities ([3]; Log10 Concentration −4.0): 0.257 | Percent Growth ([3]; Log10 Concentration −4.0): −20% | Mean Optical Densities ([3]; Log10 Concentration −5.0): 0.011 | Percent Growth ([3]; Log10 Concentration −5.0): −97% | Mean Optical Densities ([3]; Log10 Concentration −6.0): 1.650 | Percent Growth ([3]; Log10 Concentration −6.0): 90% | Mean Optical Densities ([3]; Log10 Concentration −7.0): 1.658 | Percent Growth ([3]; Log10 Concentration −7.0): 91% | Mean Optical Densities ([3]; Log10 Concentration −8.0): 1.654 | Percent Growth ([3]; Log10 Concentration −8.0): 91% | GI50 [4]: 1450 nM | Mean Optical Densities ([4]; Log10 Concentration −4.0): 0.439 | Percent Growth ([4]; Log10 Concentration −4.0): −43% | Mean Optical Densities ([4]; Log10 Concentration −5.0): 0.037 | Percent Growth ([4]; Log10 Concentration −5.0): −95% | Mean Optical Densities ([4]; Log10 Concentration −6.0): 1.471 | Percent Growth ([4]; Log10 Concentration −6.0): 78% | Mean Optical Densities ([4]; Log10 Concentration −7.0): 1.558 | Percent Growth ([4]; Log10 Concentration −7.0): 87% | Mean Optical Densities ([4]; Log10 Concentration −8.0): 1.509 | Percent Growth ([4]; Log10 Concentration −8.0): 82% | TGI ([4]; in M (unit assumed)): 2.82E−06
